# In article PMC4191898 (Bioorganic & medicinal chemistry letters, 2014):
# Tested on: DU-145 cells
# Assay: antiproliferative activity against DU-145 cells
# Format: cell-based, human
# Settings: not given
SMILES,GI50 values (range in words),antiproliferative activity (in words)
O=C(NCc1ccccc1)N1CCC(c2nc(COc3ccccc3)no2)CC1 [Compound 11d],submicromolar range,
O=C(NCc1ccsc1)N1CCCC(c2nc(Cc3ccccc3)no2)C1 (centres unmarked) [Compound 13],,completely eliminated
O=C(N1CCC(c2nc(-c3ccc(F)cc3)no2)CC1)N1CCc2ccccc2C1 [Compound 8j],,markedly lower
O=C(NCc1ccsc1)N1CCC(c2nc(Cc3ccccc3)no2)C1 (centres unmarked) [Compound 15],,drastically reduced
COC(=O)CNC(=O)N1CCC(c2nc(-c3ccc(F)cc3)no2)CC1 [Compound 8e],,no activity was detected
CN(Cc1ccco1)C(=O)N1CCC(c2nc(-c3ccc(F)cc3)no2)CC1 [Compound 8a],,markedly lower
Cc1cc(CNC(=O)N2CCC(c3nc(-c4ccc(F)cc4)no3)CC2)nn1C [Compound 8o],submicromolar range,
CCCCNC(=O)N1CCC(c2nc(-c3ccc(F)cc3)no2)CC1 [Compound 8b],,no activity was detected
O=C(NCc1ccsc1)N1CCCCC1c1nc(Cc2ccccc2)no1 (centres unmarked) [Compound 14],,completely eliminated
O=C(NCc1ccsc1)N1CCCC1c1nc(Cc2ccccc2)no1 (centres unmarked) [Compound 16],,completely eliminated
O=C(NCc1ccccc1)N1CCC(c2nc(Cc3ccccc3)no2)CC1 [Compound 11b],submicromolar range,
C#CCNC(=O)N1CCC(c2nc(-c3ccc(F)cc3)no2)CC1 [Compound 8k],,no activity was detected
O=C(NCc1ccsc1)N1CCC(c2nc(-c3ccc(F)cc3)no2)CC1 [Compound 8g],submicromolar range,
O=C(N1CCC(c2nc(-c3ccc(F)cc3)no2)CC1)N1CCCc2ccccc21 [Compound 8i],,complete loss

# Same assay, conditions: means of three experiments ± standard deviation, Inactive = <20% DU-145 growth inhibition at 50 μM
row,SMILES,GI50
1,Cc1noc(C2CCN(C(=O)NCc3ccccc3)CC2)n1 [Compound 11j],Inactive
2,CC(C)Cc1noc(C2CCN(C(=O)NCc3ccccc3)CC2)n1 [Compound 11i],Inactive
3,COC(=O)CNC(=O)N1CCC(c2nc(-c3ccc(F)cc3)no2)CC1 [Compound 8e],Inactive
4,COCCNC(=O)N1CCC(c2nc(-c3ccc(F)cc3)no2)CC1 [Compound 8r],Inactive
5,CCCCNC(=O)N1CCC(c2nc(-c3ccc(F)cc3)no2)CC1 [Compound 8b],Inactive
6,O=C(N1CCOCC1)N1CCC(c2nc(-c3ccc(F)cc3)no2)CC1 [Compound 8n],Inactive
7,C#CCNC(=O)N1CCC(c2nc(-c3ccc(F)cc3)no2)CC1 [Compound 8k],Inactive
8,O=C(N1CCC(c2nc(-c3ccc(F)cc3)no2)CC1)N1CCc2ccccc21 [Compound 8l],Inactive
9,O=C(N1CCCCC1)N1CCC(c2nc(-c3ccc(F)cc3)no2)CC1 [Compound 8m],Inactive
10,CC(C)(C)NC(=O)N1CCC(c2nc(-c3ccc(F)cc3)no2)CC1 [Compound 8q],Inactive
11,O=C(NCC1CC1)N1CCC(c2nc(-c3ccc(F)cc3)no2)CC1 [Compound 8s],Inactive
12,O=C(N1CCC(c2nc(-c3ccc(F)cc3)no2)CC1)N1CCCc2ccccc21 [Compound 8i],Inactive
